We go through 32 compounds from ChEMBL document CHEMBL1150342, “Novel 3-carboxamide-coumarins as potent and selective FXIIa inhibitors” (J Med Chem, 2008).

The source made the active and inactive calls. The rule behind the calls is not given here.

Usually IC50 stands for the point on the concentration scale where inhibition reaches its midpoint.

The target in assay [1] is T1, Coagulation factor XII (Homo sapiens, UniProt P00748).
T1 sequence (P00748 whole entry): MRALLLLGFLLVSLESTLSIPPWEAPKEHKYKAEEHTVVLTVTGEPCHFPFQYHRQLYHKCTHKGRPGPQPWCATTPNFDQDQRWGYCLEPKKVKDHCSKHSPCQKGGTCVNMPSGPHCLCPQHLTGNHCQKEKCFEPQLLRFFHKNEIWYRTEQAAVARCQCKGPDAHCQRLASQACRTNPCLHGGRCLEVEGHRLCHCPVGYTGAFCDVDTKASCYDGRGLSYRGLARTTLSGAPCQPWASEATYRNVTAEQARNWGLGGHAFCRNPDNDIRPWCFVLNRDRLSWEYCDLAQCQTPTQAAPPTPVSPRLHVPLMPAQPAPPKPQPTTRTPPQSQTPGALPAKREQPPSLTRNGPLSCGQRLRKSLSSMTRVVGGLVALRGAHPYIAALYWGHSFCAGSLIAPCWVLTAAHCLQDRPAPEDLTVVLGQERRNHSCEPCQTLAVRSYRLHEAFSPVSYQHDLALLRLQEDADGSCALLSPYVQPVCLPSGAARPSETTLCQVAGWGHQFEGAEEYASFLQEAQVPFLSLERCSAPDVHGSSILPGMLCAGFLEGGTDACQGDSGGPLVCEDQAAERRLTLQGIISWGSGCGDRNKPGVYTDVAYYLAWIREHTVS
Put plainly: Inhibition of human factor 12a.

Assay [2] addresses T2, Prothrombin (Homo sapiens, UniProt P00734). The assay can be described thus: Inhibition of human thrombin.
Assay [3] deals with T3, Coagulation factor X (Homo sapiens, UniProt P00742). The assay can be described thus: Inhibition of human factor 10a.
In assay [4] the target is Coagulation factor VII/tissue factor (Homo sapiens) (UniProt P08709+P13726). The assay can be described thus: Inhibition of human tissue factor/factor 7a at 50 uM.
Assay [5] concerns the target T4, Plasma kallikrein (Homo sapiens, UniProt P03952). The assay can be described thus: Inhibition of human kallikrein at 50 uM.
The target of assay [6] is T5, Coagulation factor XII (Homo sapiens) (UniProt P00748).
T5 sequence (whole entry): T1 sequence (P00748 whole entry)
The assay can be described thus: Inhibition of human factor 12a at 50 uM.

Assay [7] addresses T4, Plasma kallikrein. Put plainly: Inhibition of human kallikrein.
For assay [8], the target named is T3, Coagulation factor X. The assay can be described thus: Inhibition of human factor 10a at 50 uM.
For assay [9], the target named is Coagulation factor VII/tissue factor (Homo sapiens, UniProt P08709). Put plainly: Inhibition of human tissue factor/factor 7a. The assay is classed as protein-complex assay.
Assay [10] deals with T2, Prothrombin. Put plainly: Inhibition of human thrombin at 50 uM.

Coagulation factor VII/tissue factor, sequence (P08709 61-212 limits assumed): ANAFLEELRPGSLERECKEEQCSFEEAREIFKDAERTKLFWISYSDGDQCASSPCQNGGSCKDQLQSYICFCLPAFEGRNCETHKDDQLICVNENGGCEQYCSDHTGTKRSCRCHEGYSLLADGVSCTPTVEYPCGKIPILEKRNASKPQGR
Coagulation factor VII/tissue factor, sequence (P08709 213-466 limits assumed): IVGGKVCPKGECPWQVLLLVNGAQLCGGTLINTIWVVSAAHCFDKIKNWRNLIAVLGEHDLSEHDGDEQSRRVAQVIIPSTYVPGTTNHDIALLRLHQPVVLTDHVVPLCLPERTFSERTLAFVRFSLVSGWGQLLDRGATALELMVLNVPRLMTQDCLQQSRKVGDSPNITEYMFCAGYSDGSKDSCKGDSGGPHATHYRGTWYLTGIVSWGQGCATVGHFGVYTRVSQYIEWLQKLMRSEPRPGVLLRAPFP
Coagulation factor VII/tissue factor, sequence (P13726 33-295 partner limits assumed): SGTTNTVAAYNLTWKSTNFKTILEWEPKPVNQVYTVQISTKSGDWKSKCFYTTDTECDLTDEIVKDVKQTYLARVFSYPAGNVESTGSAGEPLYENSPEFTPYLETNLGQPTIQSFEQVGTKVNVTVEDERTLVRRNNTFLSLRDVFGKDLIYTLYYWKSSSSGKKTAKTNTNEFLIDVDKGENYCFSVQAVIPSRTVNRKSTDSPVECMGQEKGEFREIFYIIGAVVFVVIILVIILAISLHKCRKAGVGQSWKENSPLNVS
T4 sequence (P03952 20-390 limits assumed): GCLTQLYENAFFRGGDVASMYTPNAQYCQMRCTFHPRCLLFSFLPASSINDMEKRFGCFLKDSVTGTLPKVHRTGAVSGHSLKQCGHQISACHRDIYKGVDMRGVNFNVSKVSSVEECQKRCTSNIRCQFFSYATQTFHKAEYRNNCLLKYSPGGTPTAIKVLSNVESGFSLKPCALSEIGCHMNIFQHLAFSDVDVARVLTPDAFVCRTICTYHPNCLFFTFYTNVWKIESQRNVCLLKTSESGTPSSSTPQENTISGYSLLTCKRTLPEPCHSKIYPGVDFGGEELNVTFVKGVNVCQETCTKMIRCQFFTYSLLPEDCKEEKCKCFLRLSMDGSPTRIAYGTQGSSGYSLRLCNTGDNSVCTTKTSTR
T4 sequence (P03952 391-638 limits assumed): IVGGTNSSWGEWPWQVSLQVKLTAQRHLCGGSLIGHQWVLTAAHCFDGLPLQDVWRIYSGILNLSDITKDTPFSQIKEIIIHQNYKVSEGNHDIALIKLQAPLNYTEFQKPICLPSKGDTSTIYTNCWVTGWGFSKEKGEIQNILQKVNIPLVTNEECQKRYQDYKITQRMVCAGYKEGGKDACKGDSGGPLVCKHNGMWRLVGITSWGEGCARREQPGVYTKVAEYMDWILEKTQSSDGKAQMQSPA
T3 sequence (P00742 41-179 limits assumed): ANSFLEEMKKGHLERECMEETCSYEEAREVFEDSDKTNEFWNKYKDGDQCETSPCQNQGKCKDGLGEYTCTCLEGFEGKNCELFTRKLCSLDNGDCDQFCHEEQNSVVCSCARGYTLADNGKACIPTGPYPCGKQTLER
T3 sequence (P00742 235-488 limits assumed): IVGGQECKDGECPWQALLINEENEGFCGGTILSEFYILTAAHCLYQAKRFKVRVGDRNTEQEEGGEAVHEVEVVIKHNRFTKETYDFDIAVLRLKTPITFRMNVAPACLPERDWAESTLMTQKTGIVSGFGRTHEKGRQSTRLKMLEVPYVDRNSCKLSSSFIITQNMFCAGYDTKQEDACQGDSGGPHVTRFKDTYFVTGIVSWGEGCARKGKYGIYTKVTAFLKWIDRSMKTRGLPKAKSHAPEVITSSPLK

Take `O=C(Oc1ccccc1)c1cc2cc(CCl)ccc2oc1=O`: the values for the half-inhibitory concentration (IC50) in [1], in assay [2] and in assay [3] were more than 50 µM, 7 µM and more than 50 µM, respectively. In addition, the outcome in [4] and in assay [5] was inactive.
Consider `COc1cccc2cc(C(=O)Nc3ccccc3)c(=O)oc12`, for which the outcome in assay [6], in assay [2] and in assay [4] was inactive. Moreover, the half-inhibitory concentration (IC50) in [3] and in [7] was more than 50 µM each time.
Consider `COc1cc(Br)cc2cc(C(=O)Nc3ccccc3)c(=O)oc12`, for which the IC50 in [1], in assay [2] and in assay [9] was more than 50 µM each time. In addition, the outcome in assay [8] and in assay [5] was inactive.
Consider `Cc1ccc2oc(=O)c(C(=O)NC(C)C)cc2c1`, for which the result in assay [6], in assay [10] and in assay [8] was inactive. Further, the IC50 in assay [9] and in [7] was more than 50 µM in each case.
For `Cc1ccc2oc(=O)c(C(=O)Nc3ccccc3)cc2c1`, the 50% inhibitory concentration (IC50) in assay [1] was 23 µM; in assay [2] it was more than 50 µM; in assay [7] it was more than 50 µM. Besides, the result in assay [8] and in [4] was inactive.
Compound `O=C(Nc1ccccc1)c1cc2ccccc2oc1=O` came in with an IC50 in [1] of 42 µM. In addition, the outcome in assay [10], in [8], in [4] and in [5] was inactive.
Consider `Cc1ccc2oc(=O)c(C(=O)NC3CCCCC3)cc2c1`, for which the outcome in assay [6], in [10], in assay [8], in assay [4] and in assay [5] was inactive.
As for `Cc1cccc(NC(=O)c2cc3cc(C)ccc3oc2=O)c1`, the figures for the 50% inhibitory concentration (IC50) in assay [1] and in [2] were 10 µM and more than 50 µM, respectively. In addition, the outcome in [8], in [4] and in assay [5] was inactive.
Take `Cc1ccc2oc(=O)c(C(=O)NCc3cccc4ccccc34)cc2c1`: the half-inhibitory concentration (IC50) in assay [1] is 15 µM; in assay [2] it was more than 50 µM. The outcome in [8], in assay [4] and in assay [5] was inactive.
Regarding `O=C(Oc1ccccc1)c1cc2ccccc2oc1=O`, the outcome in [6], in assay [10], in [8], in assay [4] and in assay [5] was inactive.
`Cc1ccc2oc(=O)c(C(=O)NCc3ccccc3)cc2c1` gave an IC50 in [1] of more than 50 µM. In addition, the outcome in assay [10], in assay [8], in assay [4] and in assay [5] was inactive.
In the case of `Cc1ccc2oc(=O)c(C(=O)NCCc3ccccc3)cc2c1`, in assay [1], the IC50 is more than 50 µM. In addition, the outcome in assay [10], in assay [8], in assay [4] and in [5] was inactive.
For the compound `O=C(Nc1ccccc1)c1cc2cc(Cl)cc(Cl)c2oc1=O`, the values for the 50% inhibitory concentration (IC50) in [1] and in assay [7] were 19 µM and more than 50 µM, respectively. Besides, the result in [10], in [8] and in assay [4] was inactive.
In the case of `Cc1cccc(NC(=O)c2cc3cc(Cl)cc(Br)c3oc2=O)c1`, the 50% inhibitory concentration (IC50) in [1] is 10 µM; in [2], more than 50 µM; in [9], more than 50 µM. Moreover, the result in [8] and in assay [5] was inactive.
In assay [1], `O=C(Nc1ccccc1)c1cc2cc(Br)ccc2oc1=O` showed a half-inhibitory concentration (IC50) of 24 µM. The outcome in [10], in assay [8], in [4] and in assay [5] was inactive.
With `Cc1ccc2oc(=O)c(C(=O)Nc3cccc(Cl)c3)cc2c1`, in assay [1], it took 31 µM to reach half-maximal inhibition (IC50). Also, the outcome in assay [10], in [8], in assay [4] and in assay [5] was inactive.
Regarding `Cc1ccc(NC(=O)c2cc3cc(C)ccc3oc2=O)cc1`, the IC50 in [1] is 20 µM; in assay [2], more than 50 µM; in assay [9] it was more than 50 µM. The result in [8] and in assay [5] was inactive.
In assay [1], `Cc1cccc(NC(=O)c2cc3cc(Cl)cc(Cl)c3oc2=O)c1` had an IC50 of 25 µM. The outcome in assay [10], in [8], in [4] and in assay [5] was inactive.
In assay [1], `Cc1ccc2oc(=O)c(C(=O)NC3CCCCCCCCCCC3)cc2c1` yielded an IC50 of 33 µM. Also, the result in assay [10], in assay [8], in [4] and in [5] was inactive.
Take `O=C(Nc1ccccc1)c1cc2cc(CCl)ccc2oc1=O`: the figures for the concentration for half-maximal inhibition (IC50) in [1], in assay [2] and in [3] were 17 µM, more than 50 µM and more than 50 µM, respectively. The result in [4] and in [5] was inactive.
`Cc1ccc2oc(=O)c(C(=O)Nc3cnc4ccccc4c3)cc2c1` had an IC50 in [1] of 8.3 µM. Also, the result in assay [10], in assay [8], in assay [4] and in [5] was inactive.
`Cc1ccc2oc(=O)c(C(=O)Nc3ccccc3C)cc2c1`: the half-maximal inhibitory concentration (IC50) was 32 µM in assay [1] and more than 50 µM in assay [2]. In addition, the outcome in [8], in assay [4] and in [5] was inactive.
On to `Cc1cc(C)cc(NC(=O)c2cc3cc(Cl)cc(Br)c3oc2=O)c1`, for which the IC50 in [1] is 32 µM; in assay [2], more than 50 µM; in [3] it was more than 50 µM; in assay [9], more than 50 µM; in [7] it was more than 50 µM.
On to `COc1ccc2cc(C(=O)Nc3ccccc3)c(=O)oc2c1`, for which the result in assay [6] and in assay [4] was inactive. Moreover, the IC50 in assay [2], in [3] and in [7] was more than 50 µM throughout.
With `O=C(Nc1ccccc1)c1cc2ccc(O)cc2oc1=O`, the result in assay [6] and in [4] was inactive. The IC50 in assay [2], in assay [3] and in [7] was more than 50 µM each time.
With `Cc1ccc2oc(=O)c(C(=O)Nc3ccc(Cl)cc3)cc2c1`, the results for the half-maximal inhibitory concentration (IC50) in [1] and in [2] were 34 µM and more than 50 µM, respectively. Moreover, the outcome in assay [8], in [4] and in [5] was inactive.
Turning to `CCN(CC)c1ccc2cc(C(=O)Nc3ccccc3)c(=O)oc2c1`, the result in assay [6], in assay [10] and in assay [8] was inactive. Further, the concentration for half-maximal inhibition (IC50) in assay [9] and in assay [7] was more than 50 µM in each case.
For the compound `Cc1ccc2oc(=O)c(C(=O)Nc3ccccc3Cl)cc2c1`, the half-maximal inhibitory concentration (IC50) was 30 µM in assay [1] and more than 50 µM in assay [2]. For the same compound, the outcome in assay [8], in assay [4] and in assay [5] was inactive.
In the case of `Cc1ccc2oc(=O)c(C(=O)Oc3ccccc3)cc2c1`, the result in assay [6], in assay [10], in [8], in assay [4] and in assay [5] was inactive.
`O=C(Nc1ccccc1)c1cc2cc([N+](=O)[O-])ccc2oc1=O`: the IC50 in [1] came to 22 µM. For the same compound, the outcome in assay [10], in [8], in [4] and in [5] was inactive.
In the case of `Cc1cc(C)cc(NC(=O)c2cc3cc(C)ccc3oc2=O)c1`, the IC50 in [1] is 9.8 µM; in assay [2] it was more than 50 µM. Besides, the outcome in assay [8], in assay [4] and in [5] was inactive.
In turn, `Cc1ccc2oc(=O)c(C(=O)NC34CC5CC(CC(C5)C3)C4)cc2c1` had an IC50 in assay [1] of 29 µM. The outcome in [10], in assay [8], in [4] and in assay [5] was inactive.
